# Source: patent US20110002944A1, “Compositions and Methods to Promote Neural Cell Growth” (The Johns Hopkins University, priority 2006, published 2011)
# B1: MAG-HI: heat-inactivated MAG (protein, UniProt P20916 20-626, looked up)
# Myelin-associated glycoprotein: GHWGAWMPSSISAFEGTCVSIPCRFDFPDELRPAVVHGVWYFNSPYPKNYPPVVFKSRTQVVHESFQGRSRLLGDLGLRNCTLLLSNVSPELGGKYYFRGDLGGYNQYTFSEHSVLDIVNTPNIVVPPEVVAGTEVEVSCMVPDNCPELRPELSWLGHEGLGEPAVLGRLREDEGTWVQVSLLHFVPTREANGHRLGCQASFPNTTLQFEGYASMDVKYPPVIVEMNSSVEAIEGSHVSLLCGADSNPPPLLTWMRDGTVLREAVAESLLLELEEVTPAEDGVYACLAENAYGQDNRTVGLSVMYAPWKPTVNGTMVAVEGETVSILCSTQSNPDPILTIFKEKQILSTVIYESELQLELPAVSPEDDGEYWCVAENQYGQRATAFNLSVEFAPVLLLESHCAAARDTVQCLCVVKSNPEPSVAFELPSRNVTVNESEREFVYSERSGLVLTSILTLRGQAQAPPRVICTARNLYGAKSLELPFQGAHRLMWAKIGPVGAVVAFAILIAIVCYITQTRRKKNVTESPSFSAGDNPPVLFSSDFRISGAPEKYESERRLGSERRLLGLRGEPPELDLSYSHSDLGKRPTKDSYTLTEELAEYAEIRVK
# modifications: heat-inactivated
# B2: OMgp: recombinant oligodendrocyte-myelin glycoprotein (protein, UniProt P23515 25-417, looked up)
# Oligodendrocyte-myelin …: ICPLQCICTERHRHVDCSGRNLSTLPSGLQENIIHLNLSYNHFTDLHNQLTQYTNLRTLDISNNRLESLPAHLPRSLWNMSAANNNIKLLDKSDTAYQWNLKYLDVSKNMLEKVVLIKNTLRSLEVLNLSSNKLWTVPTNMPSKLHIVDLSNNSLTQILPGTLINLTNLTHLYLHNNKFTFIPDQSFDQLFQLQEITLYNNRWSCDHKQNITYLLKWMMETKAHVIGTPCSTQISSLKEHNMYPTPSGFTSSLFTVSGMQTVDTINSLSVVTQPKVTKIPKQYRTKETTFGATLSKDTTFTSTDKAFVPYPEDTSTETINSHEAAAATLTIHLQDGMVTNTSLTSSTKSSPTPMTLSITSGMPNNFSEMPQQSTTLNLWREETTTNVKTPLPS
# B3: heat-inactivated Omgp: heat-inactivated OMgp (protein, UniProt P23515 25-417, looked up)
# Oligodendrocyte-myelin …: B2 Oligodendrocyte-myelin …
# modifications: heat-inactivated
# Columns and labels:
# FAK = assay: MAG-induced FAK tyrosine phosphorylation in hippocampal neurons (IP anti-FAK, immunoblot); assay type: cell-based, rat; settings: echistatin 100 nM
# Method: The question was next asked how β1-integrin signaling transduces MAG-induced neuronal responses. Focal adhesion kinase (FAK) is a major mediator of integrin-dependent signaling in many contexts, including cell migration and axon guidance (Nakamoto et al., 2004; Nikolopoulos and Gianotti, 2005; Xie and Tsai, 2004). […] MAG-induced FAK phosphorylation was abolished in the presence of echistatin (100 nM) or Ha2/5 ([…]) (FIG. 6B). […] The specific FAK tyrosine residues that become phosphorylated upon MAG stimulation in hippocampal neurons were next examined. […] Similar β1-integrin-dependent FAK phosphorylation of these tyrosine residues was also found in embryonic cortical neurons treated with MAG (data not shown).
# Hippocampal neurons were isolated from embryonic and postnatal rats, or wild-type and NgR knockout mice (Zheng et al., 2005) as previously described (Song et al., 2002a; Song et al., 2002b). Similarly, cerebellar neurons were isolated from P5 rat cerebellum (Xiang et al., 2002). They were cultured on poly-L-lysine coated plates or coverslips as previously described (Song et al., 2002a; Song et al., 2002b). For biochemical analysis, embryonic day 18 (E18) neurons were treated with the agent AraC to eliminate dividing astrocytes and used at 5 days after plating as previously described (Song et al., 2002a; Song et al., 2002b). […]
# [1] = test system: axonal growth cones of P5 rat hippocampal neurons; assay: Growth cone turning assay in a MAG gradient, P5 hippocampal neurons; assay type: cell-based
# Method: To examine the functional role of β1-integrin in transducing MAG signaling in neuronal growth cones, growth cone turning assays were performed using rat hippocampal neurons. Growth cone turning assays are well-known and described in the art, for example by Song et al., 1998; Xiang et al., 2002; see also Experimental Procedures.
# (§1) Hippocampal neurons were isolated from embryonic and postnatal rats, or wild-type and NgR knockout mice (Zheng et al., 2005) as previously described (Song et al., 2002a; Song et al., 2002b). Similarly, cerebellar neurons were isolated from P5 rat cerebellum (Xiang et al., 2002). They were cultured on poly-L-lysine coated plates or coverslips as previously described (Song et al., 2002a; Song et al., 2002b). For biochemical analysis, embryonic day 18 (E18) neurons were treated with the agent AraC to eliminate dividing astrocytes and used at 5 days after plating as previously described (Song et al., 2002a; Song et al., 2002b). For growth cone turning assay, neurons were used between 2-3 days after plating. […]
# Microscopic gradients of recombinant MAG (150 μg/ml in the pipette) and OMgp (5 μg/ml in the pipette) were produced as previously described (Lohof et al., 1992; Song et al., 1998; Xiang et al., 2002). […] Statistical significance was assessed using ANOVA and accepted if p<0.01. […]
# [2] = test system: axonal growth cones of rat P5 hippocampal neurons; assay: Growth cone turning assay in an OMgp gradient, P5 hippocampal neurons; assay type: cell-based; settings: for growth cone turning response to a gradient of the protein: 5 μg/ml in the pipette
# Excerpt: Three major myelin-associated inhibitory factors, Nogo-66, MAG and OMgp, are known to bind the common NgR protein, and may utilize the same signal transduction pathway to inhibit axonal extension (Domeniconi et al., 2002; Fournier et al., 2001; Liu et al., 2002; Wang et al., 2002b). Therefore, whether β1-integrin also mediates growth cone responses to other myelin-associated inhibitors was next considered. […] Thus, β1-integrin appears to specifically mediate acute axonal growth cone turning induced by MAG, but not by OMgp.
# Hippocampal neurons were isolated from embryonic and postnatal rats, or wild-type and NgR knockout mice (Zheng et al., 2005) as previously described (Song et al., 2002a; Song et al., 2002b). Similarly, cerebellar neurons were isolated from P5 rat cerebellum (Xiang et al., 2002). They were cultured on poly-L-lysine coated plates or coverslips as previously described (Song et al., 2002a; Song et al., 2002b). For biochemical analysis, embryonic day 18 (E18) neurons were treated with the agent AraC to eliminate dividing astrocytes and used at 5 days after plating as previously described (Song et al., 2002a; Song et al., 2002b). For growth cone turning assay, neurons were used between 2-3 days after plating. PI-PLC (1 or 2 units/ml) (Wang et al., 2002b), Ha2/5 (1 μg/ml) or echistatin (100 nM) (Gan et al., 1988) were added for 30 mins prior to and were present during the biochemical analysis or the growth cone turning assay.
# Microscopic gradients of recombinant MAG (150 μg/ml in the pipette) and OMgp (5 μg/ml in the pipette) were produced as previously described (Lohof et al., 1992; Song et al., 1998; Xiang et al., 2002). Axons were identified as the longest neurite in these cultures at the stage 2-3 of hippocampal neurons as previously described (Dotti et al., 1988). Growth cone assays were carried out at room temperature for 30 min. […] Statistical significance was assessed using ANOVA and accepted if p<0.01.
# β1-integrin = target: T1, β1-integrin (Rattus norvegicus, UniProt P49134); assay: Co-immunoprecipitation of MAG-Fc and β1-integrin in primary hippocampal neurons; assay type: binding; settings: echistatin 100 nM; primary hippocampal cultures treated with MAG-Fc
# T1 construct: endogenous in cells; host or cells: primary hippocampal neurons (E18, 5 days after plating)
# Method: To determine whether β1-integrin interacts with myelin associated glycoprotein (MAG), cultured primary hippocampal neurons were treated with recombinant MAG consisting of the MAG extracellular domain fused to human Fc (MAG-Fc; see Experimental Procedures), a fusion protein previously shown to potently regulate neurite outgrowth and induce growth cone turning responses (Domeniconi et al., 2002; Henley et al., 2004; Liu et al., 2002; McKerracher et al., 1994; Shim et al., 2005; Song et al., 1998).
# as §1
# T1 sequence (P49134 21-799): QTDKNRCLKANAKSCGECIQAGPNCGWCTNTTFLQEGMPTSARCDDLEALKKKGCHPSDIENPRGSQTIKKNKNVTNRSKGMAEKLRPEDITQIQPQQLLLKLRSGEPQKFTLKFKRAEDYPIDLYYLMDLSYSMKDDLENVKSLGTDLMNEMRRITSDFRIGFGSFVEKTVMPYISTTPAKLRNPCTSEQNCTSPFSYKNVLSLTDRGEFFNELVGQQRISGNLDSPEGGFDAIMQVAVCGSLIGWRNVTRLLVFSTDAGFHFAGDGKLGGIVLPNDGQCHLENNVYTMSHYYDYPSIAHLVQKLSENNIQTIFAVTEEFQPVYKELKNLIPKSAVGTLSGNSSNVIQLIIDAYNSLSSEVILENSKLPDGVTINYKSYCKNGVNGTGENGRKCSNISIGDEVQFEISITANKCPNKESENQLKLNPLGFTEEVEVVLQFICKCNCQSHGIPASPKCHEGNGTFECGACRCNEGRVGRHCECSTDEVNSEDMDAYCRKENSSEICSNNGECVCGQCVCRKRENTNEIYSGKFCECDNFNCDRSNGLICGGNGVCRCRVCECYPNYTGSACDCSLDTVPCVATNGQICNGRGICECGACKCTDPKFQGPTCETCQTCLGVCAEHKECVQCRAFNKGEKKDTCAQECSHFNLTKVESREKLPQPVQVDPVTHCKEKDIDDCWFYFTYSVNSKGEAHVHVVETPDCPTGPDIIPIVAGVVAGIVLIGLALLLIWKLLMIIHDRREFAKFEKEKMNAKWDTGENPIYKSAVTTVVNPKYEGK
molecule,measurement,setting,value
echistatin,effect on MAG-induced FAK phosphorylation,FAK,abolished
same,effect on MAG-induced growth cone repulsion,"[1]; 100 nM echistatin, MAG 150 μg/ml in the pipette",completely abolished
same,effect on OMgp-induced growth cone repulsion,"[2]; echistatin 100 nM, OMgp 5 μg/ml in the pipette",still exhibited significant repulsion
same,association between MAG and β1-integrin (co-immunoprecipitation),β1-integrin,attenuated
B1,growth cone turning response to a gradient of the protein,"[1]; 150 μg/ml in the pipette, 30 min",no bias in the direction of axonal extension
B2,growth cone turning response to a gradient of the protein,[2],significant repulsive turning responses
B3,growth cone turning response to a gradient of the protein,[2],not
